pEC50: −log10 of the molar value. In brackets after ≈: the same amount, converted by molar mass.
Assays:
Human KCNQ2/3 channel = Human KCNQ2/3 channel (Homo sapiens (Human), UniProt O43525+O43526); experiment: Opening action with respect to KCNQ2/3 channel by depolarization stimulation (thallium influx, FLIPR); type: cell-based; details: concentration giving 50% of maximum reaction of retigabine (10 μM); human KCNQ2/3 expression CHO-DHFR- cells; 5 mM potassium and 0.5 mM thallium; read-out: KCNQ2/3 ECrtg50
Description: Human KCNQ2/3 expression cells (CHO-DHFR-cells) were seeded in each well of 384 well plate (collagen-coated, black, clear bottom) at 0.5×10^4 cells/50 μL per well, and cultured in a MEM ALPHA medium (containing 10 vol % inactivated (56° C., 30 min) Fetal Bovine Serum and 100 IU/mL Penicillin—100 μg/mL Streptomycin—2 mM L-Glutamine) at 37° C. in 5% CO2 for 18 to 24 hours. The medium in the plate was removed. Then, incubation (room temperature, 60 minutes, light-shielded) was carried out in a loading buffer (prepared by the method described in the manual of FluxOR Thallium Detection Kit (Invitrogen, F10016, F10017)). KCNQ2/3 channel opening action (thallium influx into cells) by the depolarization stimulation (5 mM potassium and 0.5 mM thallium) was measured by FLIPR TETRA (Molecular Devices). The compound of the present invention had been treated five minutes before the depolarization stimulation, and the reaction induced by the depolarization stimulation was measured over time for 180 seconds. The channel opening action of the compound of the present invention was evaluated based on the change amount of the fluorescence intensity from the time before the depolarization stimulation to the time after the passage of 180 seconds. Thus, the concentration (ECrtg50) satisfying 50% of the fluorescence intensity change of maximum reaction (at the time of 10 μM-treatment) of retigabine under this experiment condition was calculated.

[1] = Solubility test (DMSO precipitation method, Pharmacopoeia of Japan elution test second solution); type: physicochemical; details: Pharmacopoeia of Japan elution test second solution pH=6.8, room temperature, five hours, quantitation range 5 to 100 μM; for solubility at 5 h: aqueous buffer, kinetic from dmso stock
Description: A calibration curve solution was prepared by diluting a test substance (10 mM DMSO solution) with acetonitrile and adding acetonitrile including an internal standard substance (candesartan) so as to be 0.1, 0.4, and 2 μM.
Sample solution was prepared as follows: 5 μL of the compound of the present invention (10 mM DMSO solution) was added to 495 μL of the Pharmacopoeia of Japan elution test second solution (pH=6.8), and the resulting mixture was stirred at room temperature for five hours. Then, the solution was placed into a solubility filter plate and subjected to suction filtration. The filtrate (20 μL) was diluted with acetonitrile, followed by adding acetonitrile including an internal standard substance ([…]).
The calibration curve and sample solutions in the amount of 5 μL were infused into LC-MS/MS (Discovery Max manufactured by Thermo Scientific) and subjected to quantitation (quantitation range: 5 to 100 μM).

Compound	pEC50 (Human KCNQ2/3 channel)	Solubility [1] [µM]	solubility at 5 h [1] [µM]
CC(O)(c1ccc(NC(=O)NCc2ccc(C(F)(F)F)cn2)cc1)C(F)(F)F (stereo not shown) [Comparative Example 1, 1-[4-(1,1,1-trifluoro-2-hydroxy-2-propanyl)phenyl]-3-{[5-(trifluoromethyl)-2-pyridinyl]methyl}urea, reference compound]	< 5.00		
O=C(Cc1ccc(F)cc1)Nc1c(Cl)cc(Cl)cc1Br [Comparative Example 2, N-(2-bromo-4,6-dichlorophenyl)-2-(4-fluorophenyl)acetamide, reference compound]		<5	< 5
CC(O)(c1cc(Cl)c(NC(=O)NCc2cccc(N3CCCCC3)n2)c(Cl)c1)C(F)(F)F (stereo not shown) [Example 5 (3), 1-[2,6-dichloro-4-(1,1,1-trifluoro-2-hydroxy-2-propanyl)phenyl]-3-{[6-(1-piperidinyl)-2-pyridinyl]methyl}urea]	6.30		
CC(O)(c1cc(Cl)c(NC(=O)NCC2(O)CCC(F)(F)CC2)c(Cl)c1)C(F)(F)F (stereo not shown) [Example 5 (6), 1-[2,6-dichloro-4-(1,1,1-trifluoro-2-hydroxy-2-propanyl)phenyl]-3-[(4,4-difluoro-1-hydroxycyclohexyl)methyl]urea]	6.40		94 (≈ 43.7 µg/mL)
Cc1cccnc1CNC(=O)Nc1c(Cl)cc(C(C)(O)C(F)(F)F)cc1Cl (stereo not shown) [Example 5 (7), 1-[2,6-dichloro-4-(1,1,1-trifluoro-2-hydroxy-2-propanyl)phenyl]-3-[(3-methyl-2-pyridinyl)methyl]urea]	6.30		
CC(O)(c1cc(Cl)c(NC(=O)NCc2ncccc2C(F)(F)F)c(Cl)c1)C(F)(F)F (stereo not shown) [Example 5 (9), 1-[2,6-dichloro-4-(1,1,1-trifluoro-2-hydroxy-2-propanyl)phenyl]-3-{[3-(trifluoromethyl)-2-pyridinyl]methyl}urea]	6.52		91 (≈ 43.3 µg/mL)
CC(O)(c1cc(Cl)c(NC(=O)NCc2nccn2Cc2ccccc2)c(Cl)c1)C(F)(F)F (stereo not shown) [Example 5 (12), 1-[(1-benzyl-1H-imidazole-2-yl)methyl]-3-[2,6-dichloro-4-(1,1,1-trifluoro-2-hydroxy-2-propanyl)phenyl]urea]	5.54		
CC(O)(c1cc(Cl)c(NC(=O)NCc2nc(C3CC3)no2)c(Cl)c1)C(F)(F)F (stereo not shown) [Example 5 (22), 1-[(3-cyclopropyl-1,2,4-oxadiazole-5-yl)methyl]-3-[2,6-dichloro-4-(1,1,1-trifluoro-2-hydroxy-2-propanyl)phenyl]urea]	6.15		85 (≈ 37.3 µg/mL)
CC(O)(c1cc(F)c(NC(=O)NCc2ccc(C(F)(F)F)cn2)c(Cl)c1)C(F)(F)F (stereo not shown) [Example 49, 1-[2-chloro-6-fluoro-4-(1,1,1-trifluoro-2-hydroxy-2-propanyl)phenyl]-3-{[5-(trifluoromethyl)-2-pyridinyl]methyl}urea]	6.22		
CC(O)(CC(F)(F)F)c1cc(Cl)c(NC(=O)NCc2ccc(C(F)(F)F)cn2)c(Cl)c1 (stereo not shown) [Example 67, 1-[2,6-dichloro-4-(4,4,4-trifluoro-2-hydroxy-2-butanyl)phenyl]-3-{[5-(trifluoromethyl)-2-pyridinyl]methyl}urea]	5.46		
NC(c1cc(Cl)c(NC(=O)NCc2cnc(C(F)(F)F)s2)c(Cl)c1)C(F)(F)F (stereo not shown) [Example 79 (4), 1-[4-(1-amino-2,2,2-trifluoroethyl)-2,6-dichlorophenyl]-3-{[2-(trifluoromethyl)-1,3-thiazole-5-yl]methyl}urea]	6.52		

Continued by rising pEC50 (Human KCNQ2/3 channel), values first:

pEC50 (Human KCNQ2/3 channel)	Solubility [1] [µM]	solubility at 5 h [1] [µM]	Compound
6.52		93 (≈ 41.2 µg/mL)	CC1(C)CC(CNC(=O)Nc2c(Cl)cc(C(C)(O)C(F)(F)F)cc2Cl)CCO1 (stereo not shown) [Example 5 (5), 1-[2,6-dichloro-4-(1,1,1-trifluoro-2-hydroxy-2-propanyl)phenyl]-3-[(2,2-dimethyltetrahydro-2H-pyran-4-yl)methyl]urea]
6.70			COC(C)(c1cc(Cl)c(NC(=O)NCc2ccc(C(F)(F)F)cn2)c(Cl)c1)C(F)(F)F (stereo not shown) [Example 71, 1-[2,6-dichloro-4-(1,1,1-trifluoro-2-methoxy-2-propanyl)phenyl]-3-{[5-(trifluoromethyl)-2-pyridinyl]methyl}urea]
7.15			CC(O)(c1cc(Cl)c(NC(=O)NCc2ccc(Br)cn2)c(Cl)c1)C(F)(F)F (stereo not shown) [Example 5 (11), 1-[(5-bromo-2-pyridinyl)methyl]-3-[2,6-dichloro-4-(1,1,1-trifluoro-2-hydroxy-2-propanyl)phenyl]urea]
7.15			CC(C)[C@@H](C)NC(=O)Nc1c(Cl)cc(C(C)(O)C(F)(F)F)cc1Cl (stereo partly drawn) [Example 5 (21), 1-[2,6-dichloro-4-(1,1,1-trifluoro-2-hydroxy-2-propanyl)phenyl]-3-[(2R)-3-methyl-2-butanyl]urea]
7.22			CC(O)(c1cc(Cl)c(NC(=O)CCc2cccc(C(F)(F)F)c2)c(Cl)c1)C(F)(F)F (stereo not shown) [Example 50 (6), N-[2,6-dichloro-4-(1,1,1-trifluoro-2-hydroxy-2-propanyl)phenyl]-3-[3-(trifluoromethyl)phenyl]propanamide]
7.30			CC(C)(C)CC(=O)Nc1c(Cl)cc(C(C)(O)C(F)(F)F)cc1Cl (stereo not shown) [Example 50 (4), N-[2,6-dichloro-4-(1,1,1-trifluoro-2-hydroxy-2-propanyl)phenyl]-3,3-dimethylbutane amide]
7.40			CC(O)(c1cc(Cl)c(NC(=O)CCc2ccccc2C(F)(F)F)c(Cl)c1)C(F)(F)F (stereo not shown) [Example 50 (7), N-[2,6-dichloro-4-(1,1,1-trifluoro-2-hydroxy-2-propanyl)phenyl]-3-[2-(trifluoromethyl)phenyl]propanamide]
8.00			CC(O)(c1cc(Cl)c(NC(=O)NCc2cc(-c3ccccc3)on2)c(Cl)c1)C(F)(F)F (stereo not shown) [Example 5 (16), 1-[2,6-dichloro-4-(1,1,1-trifluoro-2-hydroxy-2-propanyl)phenyl]-3-[(5-phenyl-1,2-oxazole-3-yl)methyl]urea]
8.00		69 (≈ 31.3 µg/mL)	CC(C)(C)c1cc(CNC(=O)Nc2c(Cl)cc(C(C)(O)C(F)(F)F)cc2Cl)no1 (stereo not shown) [Example 13, 1-[2,6-dichloro-4-(1,1,1-trifluoro-2-hydroxy-2-propanyl)phenyl]-3-{[5-(2-methyl-2-propanyl)-1,2-oxazole 3-yl]methyl}urea]
8.52		79 (≈ 31.7 µg/mL)	CC(NC(=O)Nc1c(Cl)cc(C(C)(O)C(F)(F)F)cc1Cl)C(C)(C)C (stereo not shown) [Example 5 (4), 1-[2,6-dichloro-4-(1,1,1-trifluoro-2-hydroxy-2-propanyl)phenyl]-3-(3,3-dimethyl-2-butanyl)urea]
8.52			CC(O)(c1cc(Cl)c(NC(=O)NCc2ccc(C(F)(F)F)o2)c(Cl)c1)C(F)(F)F (stereo not shown) [Example 5 (17), 1-[2,6-dichloro-4-(1,1,1-trifluoro-2-hydroxy-2-propanyl)phenyl]-3-{[5-(trifluoromethyl)-2-furyl]methyl}urea]
9.00			CC(O)(c1cc(Cl)c(NC(=O)NCc2ccc(Cl)s2)c(Cl)c1)C(F)(F)F (stereo not shown) [Example 5 (8), 1-[(5-chloro-2-thienyl)methyl]-3-[2,6-dichloro-4-(1,1,1-trifluoro-2-hydroxy-2-propanyl)phenyl]urea]
9.52			CC(O)(c1cc(Cl)c(NC(=O)NCC2CCCCC2)c(Cl)c1)C(F)(F)F (stereo not shown) [Example 5 (10), 1-(cyclohexylmethyl)-3-[2,6-dichloro-4-(1,1,1-trifluoro-2-hydroxy-2-propanyl)phenyl]urea]

From patent US10676438B2, “KCNQ2-5 channel activator” (Ono Pharmaceutical Co., Ltd., priority 2014, dated 2020)
